From patent publication US20250282812A1, “ANTIVIRAL NUCLEOSIDE ANALOGUE, AND PHARMACEUTICAL COMPOSITION AND USE THEREOF” (SHANGHAI INSTITUTE OF MATERIA MEDICA , CHINESE ACADEMY OF …, priority 2022, published 2025)

Tests used:
SFTSV-Nluc [1] = experiment: microbe, parasite or virus in culture; format: cell-based, severe fever with thrombocytopenia syndrome virus (SFTSV); settings: Severe fever with thrombocytopenia syndrome virus, Vero, 48 h
SFTSV-Nluc [2] = tested on: SFTSV-Nluc; design: species or system A129 mice; settings: mouse
[3] = Stability test of compounds in solutions at different pH values
[4] = tested on: respiratory syncytial virus (RSV) A long strain; experiment: In vitro activity against respiratory syncytial virus (CPE, CCK8, HEp-2 cells); format: cell-based; settings: human respiratory syncytial virus, 120 h, MOI=0.02, 5 days
[5] = Pharmacokinetic evaluation in rats (Test Example 1); format: in vivo; settings: rat, nucleoside X28-1 in plasma, male SD rats, single iv 10.0 mg/kg
Protocol: Male SD rats, divided into intravenous (iv) and intragastric (po) groups, were fasted for 16 h before the experiment (the intravenous group was not fasted), with free access to water, and were fed together 2 h after administration. Compound X28-1 was intravenously injected at a dose of 10.0 mg/kg (n=3), and compounds X22, X51, and X102 (n=3) were intragastrically administered in equimolar amounts to X28-1, which were 15.5 mg/kg, 16.5 mg/kg, and 16.6 mg/kg, respectively, with a vehicle of 5% DMSO+5% enthanol+40% PEG400+50% saline. 0.2-0.3 mL of blood was collected via the jugular vein at 5 min (intravenous only), 0.25 h, 0.5 h, 1.0 h, 2.0 h, 4.0 h, 6.0 h, 8.0 h, and 24 h after administration. The blood samples were transferred into heparin sodium anticoagulation tubes, gently mixed uniformly, and centrifuged at 2000 g for 10 min. Plasma was isolated and frozen in a refrigerator at −70° C. for later detection. The concentration of nucleoside X28-1 in the plasma was determined by the LC-MS-MS method and pharmacokinetic parameters were calculated.

[6] = Pharmacokinetic evaluation in rats (Test Example 2); format: in vivo; settings: rat, nucleoside X28-1 in plasma, male SD rats, single iv 5.0 mg/kg
Protocol: A total of 12 male SD rats, divided into intravenous (IV) and intragastric (PO) groups, were fasted for 12 h before the experiment (the intravenous group was not fasted), with free access to water, and were fed together 2 h after administration. Compound X28-1 was intragastrically administered at a dose of 10.0 mg/kg (n=3) and intravenously injected at a dose of 5.0 mg/kg (n=3), and both compound X52 and compound X55 were intragastrically administered at a dose of 18.0 mg/kg (n=3), with a vehicle of 5% DMSO+5% enthanol+40% PEG400+50% saline. For the intravenous group, 0.2-0.3 mL of blood was collected via the jugular vein at 5 min, 0.25 h, 0.5 h, 1.0 h, 2.0 h, 4.0 h, 8.0 h, and 24.0 h after administration, and for the intragastric group, at 5 min, 0.5 h, 1.0 h, 2.0 h, 4.0 h, 6.0 h, 8.0 h, and 24.0 h after administration. The blood samples were transferred into heparin sodium anticoagulation tubes, gently mixed uniformly, and centrifuged at 2000 g for 10 min. Plasma was isolated and frozen in a refrigerator at −70° C. for later detection. The concentration of nucleoside X28-1 in the plasma was determined by the LC-MS-MS method and pharmacokinetic parameters were calculated.

[7] = Cytotoxicity in HEp-2 cells (CCK8); settings: human
in vitro = settings: dog
[8] = tested on: influenza virus (IFV) A/California/07/2009 (H1N1) pdm09 strain; experiment: In vitro activity against influenza virus (CPE, CCK8, MDCK cells); format: cell-based; settings: 120 h, read-out: IFV (MDCK) EC50
[9] = tested on: respiratory syncytial virus (RSV A2); experiment: In vivo efficacy for respiratory syncytial virus (RSV) in mice
[10] = Pharmacokinetic evaluation in cynomolgus monkeys (Test Example 5); format: in vivo; settings: cynomolgus monkey, nucleoside X28-1 in plasma, male cynomolgus monkeys, single iv 1.0 mg/kg
Protocol: Male cynomolgus monkeys were fasted for 12 h before intragastric administration, with free access to water, and were fed together 2 h after administration. X28-1 was intravenously administered at a dose of 1.0 mg/kg (n=3) and intragastrically administered at a dose of 5.0 mg/kg (n=3), and X219 hydrochloride was intragastrically administered at a dose of 10.7 mg/kg (n=3), with a vehicle for the compounds of 5% DMSO+5% enthanol+40% PEG400+50% saline. 0.5 mL of blood was collected via the forelimb vein at 5 min (intravenous only), 0.25 h, 0.5 h, 1.0 h, 2.0 h, 4.0 h, 6.0 h, 8.0 h, and 24.0 h after administration. The blood samples were transferred into heparin sodium anticoagulation tubes, gently shaken and mixed uniformly, put on ice, and immediately centrifuged (4° C., 2000 g, 10 min). After centrifugation, 100 μL of plasma was accurately pipetted and added to a plastic tube containing 400 μL of methanol solution with an internal standard, temporarily stored on dry ice after being vortexed, and then stored in an ultra-low temperature refrigerator for later detection. The concentration of nucleoside X28-1 in the plasma was determined by the LC-MS-MS method and pharmacokinetic parameters were calculated.

[11] = tested on: wild-type SFSV virus (SFTSV-WT); format: in vivo; settings: A129 mice infected with SFTSV-WT; X28-1 20 mpk intragastric once daily Day 0 to Day 6

O=c1ccn([C@@H]2O[C@](F)(CO)[C@@H](O)[C@H]2O)c(=O)[nH]1 [Compound X28-1, reference compound]
EC50 (SFTSV-Nluc [1]): 0.8 µM
inhibition at 10 µM (SFTSV-Nluc [1]; read-out: Inhibition rate (10 μM)): 95.3%
in vivo fluorescence imaging, fluorescence intensity on ventral and dorsal side (SFTSV-Nluc [2]): negligible fluorescence intensity
change in the body weight (SFTSV-Nluc [2]; in vivo, 20 mg/kg): no significant change
in vitro imaging of spleen, kidneys, liver and intestine: fluorescence intensity compared with the SFTSV-Nluc vehicle group (SFTSV-Nluc [2]; in vivo, 20 mg/kg): significantly weaker
spleen/body weight ratio and kidney/body weight ratio (SFTSV-Nluc [2]; in vivo, 20 mg/kg): consistent with those in the blank control group
survival rate (SFTSV-Nluc [2]; in vivo, 20 mg/kg): 100%
viral titer and copy number in the spleen and kidney compared with the SFTSV-Nluc vehicle group (SFTSV-Nluc [2]; in vivo, 20 mg/kg): significantly reduced
Content reduction (%) ([3]; buffered saline solution pH 4.0, 3 h): 5.7%
Content reduction (%) ([3]; buffered saline solution pH 4.0, 6 h): 12.2%
Content reduction (%) ([3]; buffered saline solution pH 4.0, 9 h): 17.5%
Content reduction (%) ([3]; buffered saline solution pH 4.0, 12 h): 22.2%
Content reduction (%) ([3]; buffered saline solution pH 4.0, 15 h): 26.9%
Content reduction (%) ([3]; buffered saline solution pH 4.0, 18 h): 30.3%
Content reduction (%) ([3]; buffered saline solution pH 4.0, 21 h): 35.9%
Content reduction (%) ([3]; buffered saline solution pH 4.0, 24 h): 40.1%
Content reduction (%) ([3]; buffered saline solution pH 6.8, 3 h): 8.0%
Content reduction (%) ([3]; buffered saline solution pH 6.8, 6 h): 15.3%
Content reduction (%) ([3]; buffered saline solution pH 6.8, 9 h): 22.0%
Content reduction (%) ([3]; buffered saline solution pH 6.8, 12 h): 28.3%
Content reduction (%) ([3]; buffered saline solution pH 6.8, 15 h): 33.4%
Content reduction (%) ([3]; buffered saline solution pH 6.8, 18 h): 38.0%
Content reduction (%) ([3]; buffered saline solution pH 6.8, 21 h): 42.9%
Content reduction (%) ([3]; buffered saline solution pH 6.8, 24 h): 46.9%
EC50 [4]: 6.06 µM
AUC(0-inf) [5]: 22.1 µg·h/mL
AUC(0-t) [5]: 20 µg·h/mL
Cmax [5]: 8.08 µg/mL
half-life [5]: 6.9 h
MRT inf ([5]; read-out: MRT0-∞): 8.33 h
AUC(0-inf) [6]: 8.69 µg·h/mL
AUC(0-t) [6]: 8.29 µg·h/mL
Cmax [6]: 2.62 µg/mL
half-life [6]: 6.09 h
MRT inf ([6]; read-out: MRT0-∞): 6.89 h
CC50 at 5 days [7]: > 10 µM
CC50 (in vitro): > 10 µM
EC50 [8]: < 0.37 µM
reduction in the pulmonary viral load compared with the vehicle group ([9]; 10 mpk intragastric once daily, Day 4): about 0.4 log10
change in the body weight ([9]; RSV A2-infected BALB/C mice, X219 hydrochloride 20 mpk or X28-1 10 mpk intragastric once daily): began to show an increase in the body weight on Day 3
AUC(0-inf) [10]: 3.72 µg·h/mL
AUC(0-t) [10]: 3.61 µg·h/mL
half-life [10]: 5.38 h
MRT inf ([10]; read-out: MRT0-∞): 4.21 h
change in the body weight [11]: no significant change
survival rate [11]: 100%
